Consider 14 compounds from patent US6723726B1 (SmithKline Beecham Corporation, priority 1996, dated 2004).

Counter-ions that a name gives are not always drawn. Like-named read-outs stand apart in the source and are kept apart here.

The test system of one test is HB4a ras cells. The test is described as follows: Cell proliferation assay, HB4a transfected with ras (general toxicity comparison). It is filed as cell-based, human. The settings on record: read-out: Cell Proliferation HB4a ras IC50. On the procedure: (§1) The cell proliferation assay uses an immortalised human breast epithelial cell line (HB4a) which has been transformed by over-expression of c-erbB-2. Growth of these cells in low serum is dependent upon the c-erbB-2 tyrosine kinase activity. The specificity of the effect of the test compounds on tyrosine kinase dependent growth over general toxicity is assessed by comparison to an HB4a cell line which has been transfected with ras. Cells are plated at 3000/well in 96-well plates in 0.1 ml medium and allowed to attach overnight, test compound is added in 0.1 ml medium, with a final concentration of 0.5% DMSO, and the plates incubated for 4 days at 37° C. The cells are then examined microscopically for evidence of morphological detransformation and cell mass is estimated by staining with methylene blue and measuring the absorbance at 620 nm. The results are shown in Table 1 below as the IC50 values in nM. Activity against a range of naturally occurring EGFr or c-erbB-2 over-expressing human tumour cell lines (BT474-breast, HN5-head and neck, N87-gastric and Calu3-lung) is assessed with selected compounds by the same methodology. The results are also shown in Table 1 below as the IC50 values in nM.

The subject of another test is HB4a erbB-2 cells. The test can be described thus: Cell proliferation assay, HB4a transformed by over-expression of c-erbB-2. Format: cell-based, human. The settings on record: read-out: Cell Proliferation HB4a erbB-2 IC50. On the procedure:
as §1

The test system of another test is HN5 cells. The test is described as follows: Cell proliferation assay, HN5 head and neck tumour cell line. Format: cell-based. The following applies: Homo sapiens, HN5, 96 h, read-out: Cell Proliferation HN5 IC50. As to the method:
as §1

A further test concerns BT474 cells. The test is described as follows: Cell proliferation assay, BT474 breast tumour cell line. The following applies: read-out: Cell Proliferation BT474 IC50. Format: cell-based, human. On the procedure:
as §1

The target in test [1] is T1, c-erbB-4 (baculovirus expressed recombinant intracellular domain) (Homo sapiens, UniProt Q15303).
T1 construct: baculovirus expressed, recombinant constructs of the intracellular domains of c-erbB-2 and c-erbB-4 that are constitutively active; made in house
The test is described as follows: Substrate phosphorylation assay, c-erbB-4. It is filed as biochemical. The following applies: ATP and peptide at Km, 30 min, room temperature. As to the method: (§2) The substrate phosphorylation assays use baculovirus expressed, recombinant constructs of the intracellular domains of c-erbB-2 and c-erbB-4 that are constitutively active and EGFr isolated from solubilised A431 cell membranes. The method measures the ability of the isolated enzymes to catalyse the transfer of the γ-phosphate from ATP onto tyrosine residues in a biotinylated synthetic peptide (Biotin-[…]. […] The reaction is stopped by the addition of EDTA (final concentration 0.15 mM) and a sample is transferred to a streptavidin-coated 96-well plate. The plate is washed and level of phosphotyrosine on the peptide is determined using a Europium-labelled antiphosphotyrosine antibody and quantified with a time-resolved fluorescence technique.

Test [2] has as its target T2, c-erbB-2 (baculovirus expressed recombinant intracellular domain) (Homo sapiens, UniProt P04626).
T2 construct: baculovirus expressed, recombinant constructs of the intracellular domains of c-erbB-2 and c-erbB-4 that are constitutively active; made in house
The test can be described thus: Substrate phosphorylation assay, c-erbB-2. The following applies: ATP and peptide at Km, 30 min, room temperature. Format: biochemical. As to the method:
as §2

The next test relates to Calu3 cells. The test is described as follows: Cell proliferation assay, Calu3 lung tumour cell line. Format: cell-based, human. The settings on record: read-out: Cell Proliferation Calu3 IC50. On the procedure: as §1
The subject of a further test is N87 cells. The test is described as follows: Cell proliferation assay, N87 gastric tumour cell line. Format: cell-based, human. The following applies: read-out: Cell Proliferation N87 IC50. On the procedure: as §1
Test [3] concerns the target T3, EGFr isolated from solubilised A431 cell membranes (Homo sapiens, UniProt P00533).
T3 construct: EGFr isolated from solubilised A431 cell membranes; endogenous in cells; host or cells: A431 cell membranes (solubilised)
The test is described as follows: Substrate phosphorylation assay, EGFr. Format: biochemical. The settings on record: ATP and peptide at Km, 30 min, room temperature. As to the method:
as §2

Setting [4] is: Homo sapiens, HB4a, 96 h, 4 days, methylene blue staining.
Setting [5] is: 4 days, methylene blue staining.
Where [6] appears, read: Homo sapiens, BT-474, 96 h, 4 days, methylene blue staining.
Setting [7] is: Homo sapiens, Calu-3, 96 h, 4 days, methylene blue staining.
The mark [8] stands for this setting: Homo sapiens, 96 h, 4 days, methylene blue staining.

T2 sequence (P04626 676-1255 limits assumed): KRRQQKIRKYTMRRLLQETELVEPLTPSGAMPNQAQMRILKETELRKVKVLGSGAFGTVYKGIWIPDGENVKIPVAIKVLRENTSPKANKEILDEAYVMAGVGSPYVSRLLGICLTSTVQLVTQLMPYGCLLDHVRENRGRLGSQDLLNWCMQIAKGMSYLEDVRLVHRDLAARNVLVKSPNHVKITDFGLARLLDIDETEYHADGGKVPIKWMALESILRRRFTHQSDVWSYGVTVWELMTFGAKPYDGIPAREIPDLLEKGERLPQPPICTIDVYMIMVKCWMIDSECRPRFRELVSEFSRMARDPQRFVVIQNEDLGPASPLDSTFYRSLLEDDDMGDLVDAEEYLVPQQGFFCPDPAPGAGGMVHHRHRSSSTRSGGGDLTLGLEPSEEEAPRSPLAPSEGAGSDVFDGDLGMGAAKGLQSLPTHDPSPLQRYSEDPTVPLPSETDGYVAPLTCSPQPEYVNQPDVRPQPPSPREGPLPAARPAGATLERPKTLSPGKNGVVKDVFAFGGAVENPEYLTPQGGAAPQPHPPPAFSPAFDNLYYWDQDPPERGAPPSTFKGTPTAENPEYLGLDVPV
T3 sequence (P00533 25-1210): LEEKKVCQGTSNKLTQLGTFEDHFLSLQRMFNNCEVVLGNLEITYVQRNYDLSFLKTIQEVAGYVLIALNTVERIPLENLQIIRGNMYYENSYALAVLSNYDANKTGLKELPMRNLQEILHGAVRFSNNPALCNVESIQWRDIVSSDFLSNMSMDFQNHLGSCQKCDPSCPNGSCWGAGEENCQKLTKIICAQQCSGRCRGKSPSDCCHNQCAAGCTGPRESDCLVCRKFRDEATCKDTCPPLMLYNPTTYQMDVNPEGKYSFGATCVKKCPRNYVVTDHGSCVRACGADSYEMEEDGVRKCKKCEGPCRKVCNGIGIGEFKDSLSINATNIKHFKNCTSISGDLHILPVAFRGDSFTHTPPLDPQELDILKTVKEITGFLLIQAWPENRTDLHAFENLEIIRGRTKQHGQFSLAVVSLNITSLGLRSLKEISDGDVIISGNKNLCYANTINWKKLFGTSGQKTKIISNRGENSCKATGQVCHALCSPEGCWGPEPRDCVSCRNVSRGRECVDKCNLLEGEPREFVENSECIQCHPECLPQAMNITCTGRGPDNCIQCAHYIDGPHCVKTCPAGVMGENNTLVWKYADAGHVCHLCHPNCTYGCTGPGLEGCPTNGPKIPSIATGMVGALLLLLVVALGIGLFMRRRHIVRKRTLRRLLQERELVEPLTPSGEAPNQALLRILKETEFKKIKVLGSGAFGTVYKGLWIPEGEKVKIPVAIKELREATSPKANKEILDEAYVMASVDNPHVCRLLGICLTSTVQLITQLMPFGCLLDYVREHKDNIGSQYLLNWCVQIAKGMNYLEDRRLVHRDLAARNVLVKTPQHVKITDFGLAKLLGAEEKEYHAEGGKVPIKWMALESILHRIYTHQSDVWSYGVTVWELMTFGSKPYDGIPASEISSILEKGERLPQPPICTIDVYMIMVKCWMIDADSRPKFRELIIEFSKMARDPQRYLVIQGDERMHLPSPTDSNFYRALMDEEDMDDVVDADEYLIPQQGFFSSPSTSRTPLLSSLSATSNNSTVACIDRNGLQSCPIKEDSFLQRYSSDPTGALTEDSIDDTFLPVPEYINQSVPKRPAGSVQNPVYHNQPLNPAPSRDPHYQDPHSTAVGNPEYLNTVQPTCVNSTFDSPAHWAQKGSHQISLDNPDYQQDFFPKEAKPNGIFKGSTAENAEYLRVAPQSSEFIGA
T1 sequence (Q15303 676-1308 limits assumed): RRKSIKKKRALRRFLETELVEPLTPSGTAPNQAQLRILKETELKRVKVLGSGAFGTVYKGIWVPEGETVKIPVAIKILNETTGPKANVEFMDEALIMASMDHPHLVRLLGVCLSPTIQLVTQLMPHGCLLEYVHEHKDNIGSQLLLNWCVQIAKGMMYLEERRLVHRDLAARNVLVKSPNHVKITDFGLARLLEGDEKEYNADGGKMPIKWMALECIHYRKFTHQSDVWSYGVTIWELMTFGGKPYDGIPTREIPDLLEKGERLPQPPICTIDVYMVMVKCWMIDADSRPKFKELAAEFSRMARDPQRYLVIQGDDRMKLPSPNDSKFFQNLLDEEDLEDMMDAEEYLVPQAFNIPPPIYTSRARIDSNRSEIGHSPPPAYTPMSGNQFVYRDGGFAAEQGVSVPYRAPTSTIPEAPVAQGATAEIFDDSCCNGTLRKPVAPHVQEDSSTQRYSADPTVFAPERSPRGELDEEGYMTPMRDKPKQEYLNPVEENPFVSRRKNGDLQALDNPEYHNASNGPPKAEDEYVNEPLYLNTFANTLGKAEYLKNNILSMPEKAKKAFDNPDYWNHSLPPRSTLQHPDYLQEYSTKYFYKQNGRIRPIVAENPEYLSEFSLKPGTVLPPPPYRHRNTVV

`c1ccc(Cn2ncc3cc(Nc4ncnc5cnc(N6CCCC6)cc45)ccc32)cc1` [Example 24, (1-Benzyl-1H-indazol-5-yl)-(6-pyrrolidin-1-yl-pyrido[3,4-d]pyrimidin-4-yl)-amine]: the IC50 was determined as 50000 nM in the test with HB4a ras cells (setting [4]); 810 nM with HB4a erbB-2 cells (setting [4]); 900 nM with HN5 cells (setting [5]); 460 nM in the test on BT474 cells (setting [6]); 140 nM in [1]; 20 nM in test [2].
As for `CS(=O)(=O)CCNCc1ccc(-c2cc3c(Nc4ccc5c(cnn5Cc5ccccc5)c4)ncnc3cn2)o1` [Example 34, (1-Benzyl-1H-indazol-5-yl)-(6-(5-((2-methanesuphonyl-ethylamino)-methyl)-furan-2-yl)-pyrido-[3,4-d]pyrimidin-4-yl)-amine Hydrochloride], the IC50 with HB4a ras cells (setting [4]) came to 17000 nM; in the test on HB4a erbB-2 cells (setting [4]), 70 nM; in the test with HN5 cells (setting [5]), 190 nM; in the test on Calu3 cells (setting [7]), 1300 nM; in the test with BT474 cells (setting [6]) it was 2 nM; in the test on N87 cells (setting [8]), 190 nM. In addition, the results for the IC50 in test [1] and in [2] were 230 nM and 15 nM, respectively.
`CN(C)c1cc2c(Nc3ccc4c(ccn4Cc4ccccc4)c3)ncnc2cn1` [Example 6, N4-(1-Benzyl-1H-indol-5-yl)-N6,N6-dimethyl-pyrido[3,4-d]pyrimidine-4,6-diamine]: the IC50 with HN5 cells (setting [5]) was determined as 320 nM; in test [1], 150 nM; in [2], 11 nM.
As for `CN(C)c1cc2c(Nc3ccc4nc(Cc5ccccc5)[nH]c4c3)ncnc2cn1` [Example 7, N4-(2-Benzyl-1H-benzimidazol-5-yl)-N6,N6-dimethyl-pyrido[3,4-d]pyrimidine-4,6-diamine], the IC50 in the test with HB4a ras cells (setting [4]) stood at 19000 nM; in the test with HB4a erbB-2 cells (setting [4]), 1900 nM; with Calu3 cells (setting [7]) it was 8000 nM; in the test with BT474 cells (setting [6]), 610 nM; in test [1] it was 21 nM; in [2], 7 nM.
For `Cn1cncc1-c1cc2c(Nc3ccc4c(cnn4Cc4ccccc4)c3)ncnc2cn1` [Example 11, (1-Benzyl-1H-indazol-5-yl)-(6-(3-methyl-3H-imidazol-4-yl)-pyrido[3,4-d]pyrimidin-4-yl)-amine], the IC50 in the test with HB4a ras cells (setting [4]) came out at 3800 nM; with HB4a erbB-2 cells (setting [4]), 1400 nM; in the test with HN5 cells (setting [5]), 1400 nM; in [3] it was 15 nM; in the test with Calu3 cells (setting [7]) it was 1200 nM; in the test with BT474 cells (setting [6]) it was 1400 nM. Also, the IC50 in the test with N87 cells (setting [8]) was 370 nM; in test [1], 55 nM; in test [2] it was 9 nM.
As for `CN1CCN(c2cc3c(Nc4ccc5c(cnn5Cc5ccccc5)c4)ncnc3cn2)CC1` [Example 32, (1-Benzyl-1H-indazol-5-yl)-(6-(4-methyl-piperazin-1-yl)-pyrido[3,4-d]pyrimidin-4-yl)-amine], the IC50 is 8800 nM with HB4a ras cells (setting [4]); 100 nM in the test with HB4a erbB-2 cells (setting [4]); 4200 nM with HN5 cells (setting [5]); 8200 nM in the test on Calu3 cells (setting [7]); 1000 nM in the test on BT474 cells (setting [6]); 600 nM in the test with N87 cells (setting [8]). The IC50 in test [1] turned out to be 140 nM; in test [2], 55 nM.
On to `c1ccc(Cn2ncc3cc(Nc4ncnc5cnc(N6CCCCC6)cc45)ccc32)cc1` [Example 25], for which the IC50 was > 50000 nM with HB4a ras cells (setting [5]); 480 nM in the test on HB4a erbB-2 cells (setting [5]); 380 nM in test [3]; 270 nM in the test with BT474 cells (setting [5]); 940 nM in the test with N87 cells (setting [5]); 570 nM in test [1]. The IC50 in [2] amounted to 60 nM.
On to `CN(C)c1cc2c(Nc3ccc4c(cnn4Cc4cccc(F)c4)c3)ncnc2cn1` [Example 16, N4-(1-(3-Fluoro-benzyl)-1H-indazol-5-yl)-N6,N6-dimethyl-pyrido[3,4-d]pyrimidine-4.6-diamine Hydrochloride], for which the IC50 was found to be 11000 nM in the test on HB4a ras cells (setting [4]); 44 nM in the test on HB4a erbB-2 cells (setting [4]); 81 nM in the test with HN5 cells (setting [5]); 180 nM in the test on Calu3 cells (setting [7]); 1 nM in the test with BT474 cells (setting [6]); 120 nM in the test with N87 cells (setting [8]). Moreover, the values for the IC50 in test [1] and in test [2] were 96 nM and 9 nM, respectively.
For the compound `CN(C)c1cc2c(Nc3ccc4c(cnn4Cc4ccc(F)cc4)c3)ncnc2cn1` [Example 17, N4-(4-Fluoro-benzyl)-1H-indazol-5-yl)-N6,N6-dimethyl-pyrido[3,4-d]pyrimidine-4,6-diamine Hydrochloride], the IC50 with HB4a ras cells (setting [5]) stood at 7600 nM; with HB4a erbB-2 cells (setting [5]), 490 nM; in the test with Calu3 cells (setting [5]), 7000 nM; in the test on BT474 cells (setting [5]) it was 550 nM; in test [2], 250 nM.
As to `CN(C)c1cc2c(Nc3ccc4c(cnn4Cc4ccccc4)c3)ncnc2cn1` [Example 2, N 4-(1-Benzyl-1H-indazol-5-yl)-N6,N6-dimethyl-pyrido[3,4-d]pyrimidine-4.6-diamine], the IC50 in the test on HB4a ras cells (Homo sapiens, HB4a, 96 h) stood at 17000 nM; with HB4a erbB-2 cells (Homo sapiens, HB4a, 96 h), 110 nM; with HN5 cells, 300 nM; with Calu3 cells (Homo sapiens, Calu-3, 96 h), 380 nM; in the test with BT474 cells (Homo sapiens, BT-474, 96 h), 140 nM; with N87 cells (Homo sapiens, 96 h) it was 240 nM. In addition, the IC50 amounted to 20 nM in test [1] and 19 nM in test [2].
On to `NC(=O)[C@@H]1CCCN1Cc1ccc(-c2cc3c(Nc4ccc5c(cnn5Cc5ccccc5)c4)ncnc3cn2)o1` [Example 10, (2S)1-(5-(4-(1-Benzyl-1H-indazol-5-ylamino)-6-pydrido[3,4-d]pyrimidin-6-yl)-furan-2-ylmethyl)-pyrrolidine-2-carboxylic Acid Amide Hydrochloride], for which the IC50 amounted to 21000 nM in the test on HB4a ras cells (setting [4]); 71 nM in the test on HB4a erbB-2 cells (setting [4]); 130 nM in the test on HN5 cells (setting [5]); 160 nM in the test on Calu3 cells (setting [7]); 2 nM in the test on BT474 cells (setting [6]); 2 nM in the test with N87 cells (setting [8]). The IC50 worked out at 10 nM in test [1] and 6 nM in [2].
Turning to `CN(CCO)c1cc2c(Nc3ccc4c(cnn4Cc4ccccc4)c3)ncnc2cn1` [Example 3], the IC50 came to 33000 nM in the test with HB4a ras cells (setting [4]); 140 nM in the test with HB4a erbB-2 cells (setting [4]); 1800 nM in the test with Calu3 cells (setting [7]); 23 nM in test [1]; 7 nM in [2].
Consider `CN(C)c1cc2c(Nc3ccc4c(ccn4S(=O)(=O)c4ccccc4)c3)ncnc2cn1` [Example 18, N4-(1-Benzenesulphonyl-1H-indol-5-yl)-N6,N6-dimethyl-pyrido[3,4-d]pyrimidine-4,6-diamine Hydrochloride], for which the IC50 was 19000 nM in the test with HB4a ras cells (setting [4]); 21 nM with HB4a erbB-2 cells (setting [4]); 440 nM with HN5 cells (setting [5]); 290 nM in test [3]; 1700 nM in [1]; 98 nM in test [2].
Regarding `Cc1nnc(-c2cc3c(Nc4ccc5c(cnn5Cc5ccccc5)c4)ncnc3cn2)o1` [Example 29, (1-Benzyl-1H-indazol-5-yl)-(6-(5-methyl-1,3,4-oxadiazol-2-yl)-pyrido[3,4-d]pyrimidin-4-yl)-amine Hydrochloride], the IC50 in the test on HB4a ras cells (setting [4]) was 29000 nM; in the test with HB4a erbB-2 cells (setting [4]), 5200 nM; in [3] it was 2 nM; in the test with BT474 cells (setting [6]), 11000 nM; with N87 cells (setting [8]), 10000 nM; in test [1], 5500 nM. Moreover, the IC50 in [2] amounted to 2 nM.
